What is called EC50 is the concentration needed to bring the measured effect to its halfway point. As usually defined, the CC50 is the concentration at which the toxic effect on the cells reaches its halfway point.

This note sets out measurements from patent US9289411B2, “Anti-HCV agent” (NATIONAL UNIVERSITY CORPORATION OKAYAMA UNIVERSITY, priority 2011, dated 2016).

Data set [1] concerns HCV-RNA replication in AH1R cells (HCV-AH1 strain, HuH-7-derived). The data set can be described thus: microbe, parasite or virus in culture. Format: cell-based, HCV genotype 1b. The conditions noted are these: for EC50: Hepatitis C virus, 72 hours, renilla luciferase activity.
Text: (§2) Assay systems using OR6 cells (HCV-O strain), 1B-4R cells (HCV-1B-4 strain), and AH1R cells (HCV-AH1R strain) as HuH-7 cell-derived full-length HCV-RNA-replicating cells, and ORL8 cells (HCV-O strain), ORL11 cells (HCV-O strain), 1B-4RL cells (HCV-1B-4 strain), and KAH5RL cells (HCV-KAH5 strain) as Li23 cell-derived full-length HCV-RNA-replicating cells were used for the quantitative analysis of anti-HCV activity and evaluation of a cytotoxic effect in the present invention. […] In addition, all the HCV strains belong to genotype 1b.
(§3) As necessary, an increase or decrease in expression level of an HCV protein (core protein) was examined by a Western blot method.
(§4) In the measurement of the renilla luciferase activity and the measurement by the WST-1 method, experiments were performed in three wells independent of each other, and their means and standard deviation were calculated.
N-89 was added so as to achieve concentrations of 500 nM, a 2-fold dilution series from 500 nM (250, 125, 63, 31, 16, and 8 nM), and 0. The luciferase activities were measured 72 hours after the culture.
N-251 was added so as to achieve concentrations of 2 μM, a 2-fold dilution series from 2 μM (1, 0.5, 0.25, 0.13, 0.06, and 0.03 μM), and 0. The luciferase activities were measured 72 hours after the culture.
Data set [2] has as its system HCV-RNA replication in 1B-4R cells (HCV-1B-4 strain, HuH-7-derived). Nature of the data set: microbe, parasite or virus in culture. The class given is cell-based, HCV genotype 1b. Conditions: for EC50: Hepatitis C virus, 72 hours, renilla luciferase activity.
Text: as §2, §3, §4
The luciferase activities were measured 72 hours after the culture.
In data set [3] the test system is HCV-RNA replication in KAH5RL cells (HCV-KAH5 strain, Li23-derived). The data set can be described thus: microbe, parasite or virus in culture. The class given is cell-based, HCV genotype 1b. Conditions: for EC50: Hepatitis C virus, 72 hours, renilla luciferase activity.
Experimental: as §4
N-89 was added so as to achieve concentrations of 10 μM, a 2-fold dilution series from 10 μM (5, 2.5, 1.3, 0.63, 0.31, and 0.16 μM), and 0. The luciferase activities were measured 72 hours after the culture.
N-251 was added so as to achieve concentrations of 5 μM, a 2-fold dilution series from 5 μM (2.5, 1.3, 0.63, 0.31, 0.16, and 0.08 μM), and 0. The luciferase activities were measured 72 hours after the culture.
For data set [4], the system named is HCV-RNA replication in 1B-4RL cells (HCV-1B-4 strain, Li23-derived). The data set can be described thus: microbe, parasite or virus in culture. Format: cell-based, HCV genotype 1b. The conditions noted are these: for EC50: Hepatitis C virus, 72 hours, renilla luciferase activity. How it is done:
For N-251, the results at concentrations of up to 1.3 μM are shown.

Data set [5] has as its system HCV core protein in HCV-O/RLGE cells. Nature of the data set: Western blot analysis of HCV core protein in HCV-O/RLGE cells. Format: cell-based. Conditions: 72 hours, concentration region in which β-actin did not reduce. How it is done:
HCV-O/RLGE cells (Ikeda et al., Liver Int 31:871-880, 2011) were plated onto a 6-well plate (5×10^4 cells in 3 mL of medium for HuH-7 cell line per well) and cultured. […] 72 hours after the culture, the cells were lysed with 100 μL of 2×SDS buffer to prepare a sample for Western blot analysis. The Western blot analysis using an antibody against an HCV core protein (CP11; Institute of Immunology, Tokyo) was performed according to a conventional method. β-Actin was detected with an anti-β-actin antibody (AC-15; Sigma-Aldrich) in a sample diluted 10-fold with 2×SDS buffer.
Background: Immunoblotting shows a protein as a band on a membrane.

The test system of data set [6] is renilla luciferase. Nature of the data set: Influence on renilla luciferase activity in lysate of ORL8 cells. Format: biochemical. Conditions: ORL8 cell lysate, concentrations of up to 20 μM. How it is done:
In the ORL8 cells, the anti-HCV activity is evaluated by measuring the activity of renilla luciferase as a product of an exogenous gene introduced so as to be linked to HCV RNA.
(§1) Thus, N-89 or N-251 was added (5 μL) to a lysate (10 μL) of the ORL8 cells (1×10^5 cells, medium for Li23 cell line) so as to achieve final concentrations of 0, 5, 10, and 20 μM, and 50 μL of a substrate were further added thereto. Then, the luciferase activity was measured.
An actual luciferase activity value (RL activity value) at 100% on the ordinate axis was 2.2×10^5 in the case of N-89 and 2.8×10^5 in the case of N-251.

Data set [7] has as its system renilla luciferase. The data set can be described thus: Influence on renilla luciferase activity in lysate of OR6 cells. Format: biochemical. Conditions: OR6 cell lysate, concentrations of up to 20 μM. How it is done:
as §1
Also in OR6 cells (medium for HuH-7 cell line), the renilla luciferase activity was measured by the same technique as in Example 6.
An actual luciferase activity value (RL activity value) at 100% on the ordinate axis was 1.1×10^6 in both of N-89 and N-251.

Data set [8] relates to HCV-RNA replication in ORL8 cells. Nature of the data set: Combination effect with existing anti-HCV agents in ORL8 cells (luciferase activity vs expected additive curve). The class given is cell-based, HCV genotype 1b. Conditions: for effect in combination with CsA: CsA 0.2, 0.3, 0.4 μM; for effect in combination with CsA / effect in combination with FLV / effect in combination with RBV: compound 0.1, 0.2, 0.4 μM; for effect in combination with FLV: FLV 0.3, 1.0, 3.0 μM; for effect in combination with RBV: RBV 12.5, 25, 50 μM. The protocol:
The effect of N-89 in combination with RBV was examined using ORL8 cells.
The drugs RBV and N-89 were added so that the concentrations of RBV were set to 0, 12.5, 25, and 50 μM and the concentrations of N-89 were set to 0, 0.1, 0.2, and 0.4 μM at each concentration of RBV. The luciferase activity was measured 72 hours after the culture.
The upper left panel of FIG. 19 and the upper right panel of FIG. 19 show the logarithmic and linear plots expressed by % of the measurement results, respectively.
The effect of N-251 in combination with RBV was examined using ORL8 cells.
The effect of N-89 in combination with IFN-α and RBV was examined using ORL8 cells.
The drugs N-89, IFN-α, and RBV were added so that the concentrations of the two drugs IFN-α and RBV were fixed as follows: both of IFN-α and RBV at 0; IFN-α at 1 IU/mL and RBV at 6.25 μM; IFN-α at 4 IU/mL and RBV at 12.5 μM; and IFN-α at 16 IU/mL and RBV at 25 μM, and the concentrations of N-89 were set to 0, 0.1, 0.2, and 0.4 μM in the respective combinations of IFN-α and RBV. The luciferase activity was measured 72 hours after the culture.
The luciferase activity was measured 72 hours after the culture.
The effect of N-89 in combination with FLV was examined using ORL8 cells.
The drugs FLV and N-89 were added so that the concentrations of FLV were set to 0.3, 1.0, and 3.0 μM and the concentrations of N-89 were set to 0, 0.1, 0.2, and 0.4 μM at each concentration of FLV. The luciferase activity was measured 72 hours after the culture.
The effect of N-251 in combination with FLV was examined using ORL8 cells.
The drugs FLV and N-251 were added so that the concentrations of FLV were set to 0.3, 1.0, and 3.0 μM and the concentrations of N-251 were set to 0, 0.1, 0.2, and 0.4 μM at each concentration of FLV. The luciferase activity was measured 72 hours after the culture.

The test system of data set [9] is HCV-RNA replication in OR6, 1B-4R, AH1R, ORL8, ORL11, 1B-4RL and KAH5RL cells. The data set can be described thus: Anti-HCV activity summarized over cells derived from various HCV strains (reporter assays). The class given is cell-based, HCV genotype 1b. The conditions noted are these: Hepatitis C virus, seven full-length HCV-RNA-replicating cell lines, read-out: EC50 values, range over all cells.
Text: Assay systems using OR6 cells (HCV-O strain), 1B-4R cells (HCV-1B-4 strain), and AH1R cells (HCV-AH1R strain) as HuH-7 cell-derived full-length HCV-RNA-replicating cells, and ORL8 cells (HCV-O strain), ORL11 cells (HCV-O strain), 1B-4RL cells (HCV-1B-4 strain), and KAH5RL cells (HCV-KAH5 strain) as Li23 cell-derived full-length HCV-RNA-replicating cells were used for the quantitative analysis of anti-HCV activity and evaluation of a cytotoxic effect in the present invention.
as §3

Data set [10] in a line: Cytotoxic effect summarized over cells derived from various HCV strains (WST-1). Conditions: human; seven full-length HCV-RNA-replicating cell lines; read-out: CC50 values, range over all cells. The class given is cell-based.
Text: as §2

Like-named read-outs stand apart in the source and are kept apart here.

As to `C1CCCCCC2(CCCCC1)OOCCCOO2` [N-89, 1,2,6,7-tetraoxaspiro[7,11]nonadecane], the “SI (CC50/EC50)” value in [1] was “about 20”; in data set [1] (listed as N89), ~20; in [2], 22; in data set [3], 13; in data set [4], 20. Further, the EC50 in data set [1] was 25 nM; in data set [2], 420 nM; in data set [3], 190 nM; in data set [4], 120 nM; in data set [9], 25 to 660 nM. For the same molecule, the “amount of HCV core protein (Western blot)” value in data set [5] is recorded as “clearly reduced”. Besides, the “inhibition on the renilla luciferase activity” value in [6] and in data set [7] was “did not show any inhibition” in each case. In [8] (72 hours), the “effect in combination with CsA” value is given as “synergistic effect”. The “effect in combination with FLV” value in [8] (72 hours) is “synergistic effect”. The “gaps between actually measured values and values expected as an additive effect” value in data set [8] (IFN-α 1 IU/mL and RBV 6.25 μM, N-89 0.1-0.4 μM) is “little gaps”. The “effect in combination with IFN-α and RBV” value in data set [8] (IFN-α 4 IU/mL + RBV 12.5 μM and IFN-α 16 IU/mL + RBV 25 μM, N-89 0.1-0.4 μM, 72 hours) was “synergistic effect”. Further, the “effect in combination with RBV” value in [8] (72 hours) is “synergistic effect”. The half-maximal cytotoxic concentration (CC50) in data set [10] lay in the range of 500 to 9300 nM.
Regarding `OCCCCCCC1COOC2(CCCCCCCCCCC2)OOC1` [N-251, 6-(1,2,6,7-tetraoxaspiro[7,11]nonadec-4-yl)], the “SI (CC50/EC50)” value in data set [1] is 3.5; in data set [2], 3.9; in data set [3] it was 11; in [4], 8.3. The EC50 in [1] was 140 nM; in data set [2], 980 nM; in data set [3], 290 nM; in data set [4], 230 nM; in data set [9] it was 59 to 980 nM. Further, the “amount of HCV core protein (Western blot)” value in data set [5] is “clearly reduced”. The “inhibition on the renilla luciferase activity” value in [6] and in data set [7] was “did not show any inhibition” throughout. Also, the “effect in combination with CsA” value in data set [8] (72 hours) is reported as “synergistic effect”. Besides, the “effect in combination with FLV” value in [8] (72 hours) is recorded as “synergistic effect”. The “effect in combination with RBV” value in [8] (72 hours) is recorded as “synergistic effect”. Moreover, the CC50 in [10] was 490 to 3800 nM.
